Results: the supplement of paper PMC10307832

Assays:
Assay in all cases: relative viability (nuclei count vs DMSO), 5 days (fraction); higher = more cells survive
[1] = compound: CCC1=CN=CN=C1N2CCN(CC2)CC3=NC4=C(N3)C=C(C=C4)C(F)(F)F + CS(=O)(=O)CCNCc1ccc(-c2ccc3ncnc(Nc4ccc(OCc5cccc(F)c5)c(Cl)c4)c3c2)o1 [Lapatinib] (partner 2 µM)
Method in brief: (§1)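 Relative viability equals treated-well nuclei counts divided by vehicle-well nuclei counts. Counts came from 4× images of lung cancer cell lines grown in 1536-well plates for 5 days after pin-tool dosing on the day after seeding. Dosing used one drug alone or a fixed anchor-drug dose plus five library-drug doses (not always all listed) in √10 steps, and values are medians of duplicate plates.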

[2] = compound: CCC1=CN=CN=C1N2CCN(CC2)CC3=NC4=C(N3)C=C(C=C4)C(F)(F)F + CCNC(=O)c1noc(-c2cc(C(C)C)c(O)cc2O)c1-c1ccc(CN2CCOCC2)cc1 [Luminespib] (partner 0.01 µM)
Method in brief: as §1

[3] = compound: CCn1c(-c2nonc2N)nc2cnc(Oc3cccc(NC(=O)c4ccc(OCCN5CCOCC5)cc4)c3)cc21 + CC1(C)CCC(c2ccc(Cl)cc2)=C(CN2CCN(c3ccc(C(=O)NS(=O)(=O)c4ccc(N[C@H](CCN5CCOCC5)CSc5ccccc5)c(S(=O)(=O)C(F)(F)F)c4)cc3)CC2)C1 [Navitoclax] (partner 0.5 µM)
Method in brief: as §1

[4] = compound: N=C1NC(=O)/C(=C/c2ccc(O)cc2)S1 [Mirin] + COc1cccc2cc(-c3nc([C@H]4CC[C@H](C(=O)O)CC4)n4ncnc(N)c34)[nH]c12 [OSI-027] (partner 0.5 µM)
Method in brief: as §1

Cell Line | relative viability ([1]; first compound 0.04 µM) | relative viability ([1]; first compound 0.1265 µM) | relative viability ([1]; first compound 0.4 µM) | relative viability ([1]; first compound 1.265 µM) | relative viability ([1]; first compound 4 µM) | relative viability ([2]; first compound 0.04 µM) | relative viability ([2]; first compound 0.1265 µM) | relative viability ([2]; first compound 0.4 µM) | relative viability ([2]; first compound 1.265 µM) | relative viability ([2]; first compound 4 µM) | relative viability ([3]; first compound 0.04 µM) | relative viability ([3]; first compound 0.1265 µM) | relative viability ([3]; first compound 0.4 µM) | relative viability ([3]; first compound 1.265 µM) | relative viability ([3]; first compound 4 µM) | relative viability ([4]; first compound 0.25 µM) | relative viability ([4]; first compound 0.7906 µM) | relative viability ([4]; first compound 2.5 µM) | relative viability ([4]; first compound 7.906 µM) | relative viability ([4]; first compound 25 µM)
NCI-H838 | 1.09 | 0.876 | 0.92 | 0.692 | 1.03 | 0.271 | 0.229 | 0.308 | 0.342 | 0.327 | 0.982 | 0.686 | 0.569 | 0.354 | 0.294 | 0.394 | 0.394 | 0.414 | 0.374 | 0.406
HARA | 0.894 | 0.762 | 0.687 | 0.602 | 0.866 | 0.668 | 0.561 | 0.682 |  | 0.555 | 1.19 | 1.02 | 1.09 | 1.18 | 1.14 | 0.491 |  | 0.56 | 0.356 | 0.437
NCI-H23 | 1.2 | 1.21 | 0.966 | 0.982 | 1.11 | 0.223 | 0.219 | 0.21 | 0.191 | 0.213 | 1.18 | 0.956 |  | 0.806 | 0.651 | 0.725 |  | 0.544 | 0.443 | 0.589
LCLC-97TM1 | 1.02 | 0.697 | 0.828 | 0.877 | 0.8 | 0.706 | 0.779 | 0.724 | 0.733 | 0.716 | 0.481 | 0.333 |  | 0.463 | 0.442 | 0.455 | 0.263 | 0.341 | 0.291 | 0.292
LC-2-ad | 1.07 | 0.898 | 0.899 | 0.945 | 0.925 | 0.952 | 1.01 | 1.01 | 0.873 | 0.939 | 0.522 | 0.439 | 0.508 | 0.214 | 0.167 | 0.851 | 0.776 | 0.822 | 0.567 | 0.492
SW 1573 | 1.12 | 0.949 | 1 | 1 | 1.08 | 0.158 | 0.211 | 0.174 | 0.273 | 0.399 | 0.911 | 1.19 | 0.807 | 0.562 | 0.223 | 0.616 | 0.428 | 0.625 | 0.524 | 0.307
EKVX | 0.212 | 0.198 | 0.227 | 0.174 | 0.216 | 0.846 | 0.83 | 0.882 |  | 0.919 | 1.13 | 1.01 | 0.861 | 0.895 | 0.831 | 0.691 | 0.672 | 0.761 | 0.591 | 0.67
NCI-H2087 | 1.07 | 0.963 | 1.08 | 0.914 | 0.818 | 0.164 | 0.227 | 0.162 | 0.142 | 0.142 |  | 0.789 | 0.962 | 0.785 | 0.598 | 0.633 | 0.436 | 0.374 | 0.253 | 0.358
HCC-827 | 0.201 | 0.182 | 0.184 | 0.165 | 0.178 | 0.687 | 0.588 | 0.544 |  | 0.587 | 1.09 | 0.98 | 0.982 | 1.02 | 0.841 | 0.785 | 0.71 | 0.748 | 0.737 | 0.744
NCI-H661 | 0.646 | 0.437 | 0.411 |  | 0.475 | 0.968 | 0.935 | 0.885 | 0.872 | 0.783 |  |  |  |  |  | 0.755 | 0.893 | 0.702 | 0.62 | 0.606
CAL-12T |  | 0.667 | 0.677 | 0.707 | 0.574 | 0.803 | 0.454 | 0.485 | 0.273 | 0.29 | 1.83 | 1.46 | 1.61 | 1.35 | 0.955 | 0.797 |  | 0.681 | 0.695 | 0.525
NCI-H2342 |  |  |  |  |  | 0.645 | 0.756 | 0.619 | 0.52 | 0.494 |  |  |  |  |  | 0.618 | 0.634 | 0.579 | 0.489 | 0.558
SW 900 |  |  |  |  |  | 0.165 | 0.194 | 0.158 | 0.177 | 0.195 |  |  |  |  |  | 0.487 | 0.597 | 0.701 | 0.434 | 0.75
IA-LM | 0.85 | 0.781 | 0.736 | 0.923 | 0.893 |  |  |  |  |  | 1.06 | 1.03 | 0.781 | 0.799 | 0.725 |  |  |  |  | 
EPLC-272H | 0.854 | 0.807 | 0.853 | 0.913 | 0.975 | 0.24 | 0.344 | 0.21 | 0.25 | 0.3 | 1.22 | 1.07 | 1.1 | 1.05 | 1.1 | 0.339 |  | 0.241 | 0.213 | 0.224
A-427 | 0.795 | 0.991 | 1.01 | 0.911 | 1.05 | 0.874 | 0.881 | 0.908 | 0.75 | 0.722 | 1.04 | 1.07 | 0.887 | 0.964 | 1.01 | 0.484 |  | 0.525 | 0.272 | 0.411
NCI-H650 | 0.73 | 0.762 | 1.21 | 1.01 | 1.06 | 0.889 | 0.926 | 0.698 | 0.739 | 0.806 |  |  |  |  |  | 0.478 | 0.628 | 0.523 |  | 0.58
NCI-H1975 | 1.16 | 0.824 | 0.851 | 0.739 | 0.846 | 0.283 | 0.302 | 0.176 | 0.199 | 0.205 | 0.827 | 0.818 | 0.763 | 0.372 | 0.286 | 0.783 | 0.733 | 0.692 | 0.82 | 0.626
